Test results taken from patent publication US7998990B2, “5-phenyl-thiazol-2-yl-urea derivatives and use as PI3 kinase inhibitors” (Novartis AG, priority 2006, dated 2011).

Target: T1, phosphatidylinositol 3-kinase gamma isoform (p110?), recombinant GST-p110? (Homo sapiens, UniProt P48736)
T1 construct: made in house; host or cells: Sf9 (Spodoptera frugiperda) insect cells, baculovirus
Assay: PI3K gamma in vitro kinase assay (Scintillation Proximity Assay, phosphate transfer from ATP to phosphatidylinositol)
Type: biochemical
Details: for IC50: gamma isoform, fluorinated Example compound
Text: Compounds of formula I and their pharmaceutically acceptable salts, hereinafter referred to alternatively as agents of the invention, are useful as pharmaceuticals.
Baculovirus expressing different fragments of PI3K? fused to GST have been previously described by Stoyanova, S., Bulgarelli-Leva, G., Kirsch, C., Hanck, T., Klinger, R., Wetzker, R., Wymann, M. P. (1997) Lipid- and protein kinase activities of G protein-coupled PI 3-kinase g: structure-activity analysis and interactions with wortmannin. Biochem. J., 324:489. Residues 38-1102 of human PI3K? are subcloned into the BamH1 and EcoR1 sites of the transfer vector pAcG2T (Pharmingen) to create a GST-PI3K? lacking the first 37 residues of PI3K?. To express the recombinant protein, Sf9 (Spodoptera frugiperda 9) insect cells are routinely maintained at densities between 3×10^5 and 3×10^6 cells/ml in serum containing TNMFH medium (Sigma). Sf9 cells, at a density of 2×10^6 are infected with human GST-PI3K[…] 34 baculovirus at a multiplicity of infection (m.o.i.) of 1 for 72 hours. The infected cells are harvested by centrifugation at 1400 g for 4 minutes at 4° C. and the cell pellets are frozen at −80° C. Both Sf9 and Sf21 cells work equally well. Sf9 cells (1×10^9) are resuspended in 100 ml cold (4° C.) lysis buffer (50 mM Tris-HCl pH 7.5, 1% Triton X-100, 150 mM NaCl, 1 mM NaF, 2 mM DTT and protease inhibitors. Cells are incubated on ice for 30 minutes then centrifuged at 15000 g for 20 minutes at 4° C. Purification of the supernatant sample is carried out at 4° C. by affinity chromatography using SEPHAROSE™ agarose gel beads coupled to glutathione (from Amersham Pharmacia Biotech). A cell lysate/GST resin ratio of 50:1 is used. The GST resin is firstly pre-rinsed to remove ethanol preservative and then equilibrated with lysis buffer. Cell lysate (supernatant) is added (usually as 50 ml lysate to 1 ml GST resin in 50 ml tubes) and gently rotated on a mixer at 4° C. for 2-3 hours. The unbound flow through sample is collected by centrifugation at 1000 g for 5 minutes at 4° C. using a DENLEY™ centrifuge. The 1 ml GST resin containing bound material is transferred to a 15 ml FALCON™ centrifuge tube for subsequent washing and elution steps. Firstly a series of 3 cycles of washings (mixing by gentle inversion) is performed with 15 ml ice cold wash Buffer A (50 mM Tris-HCl pH 7.5, 1% Triton X-100, 2 mM DTT) interspersed with centrifugation at 1000 g for 5 minutes at 4° C. A final single wash step is performed with 15 ml ice cold wash Buffer B (50 mM Tris-HCl pH 7.5, 2 mM DTT) and then centrifuged at 1000 g for 5 minutes at 4° C. The washed GST resin is finally eluted with 4 cycles of 1 ml ice cold elution buffer (50 mM Tris-HCl pH 7.5, 10 mM reduced glutathione, 2 mM DTT, 150 mM NaCl, 1 mM NaF, 50% ethylene glycol and protease inhibitors) interspersed with centrifugation at 1000 g for 5 minutes at 4° C. Samples are aliquoted and stored at −20° C.
An in vitro kinase assay was established that measures the transfer of the terminal phosphate of adenosine triphosphate to phosphatidylinositol. The kinase reaction is performed in a white 96 well microtitre plate as a Scintillation Proximity Assay. Each well contains 10 μl test compound in 5% dimethylsulphoxide and 20 μl assay mix (40 mM Tris, 200 mM NaCl, 2 mM ethyleneglycol-aminoethyl-tetraacetic acid (EGTA), 15 μg/ml phosphatidylinositol, 12.5 μM adenosine triphosphate (ATP), 25 mM MgCl2, 0.1 μCi [^33P]ATP). […]

T1 sequence (P48736 38-1102): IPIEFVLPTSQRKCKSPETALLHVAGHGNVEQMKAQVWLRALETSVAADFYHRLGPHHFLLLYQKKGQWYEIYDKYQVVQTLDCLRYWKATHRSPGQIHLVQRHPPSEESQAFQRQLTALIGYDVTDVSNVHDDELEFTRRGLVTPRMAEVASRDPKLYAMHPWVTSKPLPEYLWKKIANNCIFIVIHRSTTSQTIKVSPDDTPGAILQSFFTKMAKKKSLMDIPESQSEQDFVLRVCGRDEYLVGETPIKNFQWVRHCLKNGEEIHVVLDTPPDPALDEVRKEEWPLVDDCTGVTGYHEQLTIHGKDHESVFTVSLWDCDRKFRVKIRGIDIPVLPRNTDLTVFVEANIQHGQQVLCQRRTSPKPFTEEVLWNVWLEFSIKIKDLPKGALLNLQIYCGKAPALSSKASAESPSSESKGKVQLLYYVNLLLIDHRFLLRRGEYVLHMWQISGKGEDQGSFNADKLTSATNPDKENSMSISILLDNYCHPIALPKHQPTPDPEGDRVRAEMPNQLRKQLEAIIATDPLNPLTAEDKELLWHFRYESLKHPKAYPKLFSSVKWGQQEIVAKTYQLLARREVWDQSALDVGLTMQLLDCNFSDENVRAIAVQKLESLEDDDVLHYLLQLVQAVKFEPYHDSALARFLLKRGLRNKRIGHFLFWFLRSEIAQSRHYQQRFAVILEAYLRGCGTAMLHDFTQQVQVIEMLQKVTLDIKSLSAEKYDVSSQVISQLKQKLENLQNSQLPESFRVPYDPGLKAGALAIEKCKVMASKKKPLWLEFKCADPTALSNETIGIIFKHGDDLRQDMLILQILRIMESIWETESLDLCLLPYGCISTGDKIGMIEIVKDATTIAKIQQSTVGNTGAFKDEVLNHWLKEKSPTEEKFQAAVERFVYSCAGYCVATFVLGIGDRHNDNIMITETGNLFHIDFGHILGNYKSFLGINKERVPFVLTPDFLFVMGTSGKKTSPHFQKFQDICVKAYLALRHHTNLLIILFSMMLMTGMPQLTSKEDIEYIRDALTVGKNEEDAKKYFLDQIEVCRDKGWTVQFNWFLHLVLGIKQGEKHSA

| Molecule | IC50 [µM] | increase in activity over the corresponding compound described in WO0521519 (fold, from IC50 (?) values of the table) |
| --- | --- | --- |
| Cc1nc(NC(=O)NCCC(=O)NCC(F)F)sc1-c1ccc(S(C)(=O)=O)c(F)c1 [compound 2, N-(2,2-Difluoroethyl)-3-{3-[5-(3-fluoro-4-methanesulfonyl-phenyl)-4-methyl-thiazol-2-yl]-ureido}-propionamide] | 0.028 | – |
| Cc1nc(NC(=O)NCCc2cn(CCF)cn2)sc1-c1ccc(S(C)(=O)=O)c(F)c1 [compound 7, 1-{2-[1-(2-Fluoro-ethyl)-1H-imidazol-4-yl]-ethyl}-3-[5-(3-fluoro-4-methanesulfonyl-phenyl)-4-methyl-thiazol-2-yl]-urea] | 0.028 | – |
| Cc1nc(NC(=O)NCCc2nnn(CCF)n2)sc1-c1ccc(S(C)(=O)=O)c(F)c1 [compound 8, 1-{2-[2-(2-Fluoro-ethyl)-2H-tetrazol-5-yl]-ethyl}-3-[5-(3-fluoro-4-methanesulfonyl-phenyl)-4-methyl-thiazol-2-yl]-urea] | 0.01 | four-fold |
| N-(2-Fluoro-1,1-dimethyl-ethyl-3-{3-[5-(3-fluoro-4-methanesulfonyl-phenyl)-4-methyl-thiazol-2-yl]-ureido}-propionamide [compound 1] | 0.046 | – |
